Reference: US12643910B2, “Substituted pyrazolo[3,4-b]pyridines as ectonucleotide pyrophosphatase/phosphodiesterase 1 (ENPP1) modulators” (SANFORD BURNHAM PREBYS MEDICAL DISCOVERY INSTITUTE, priority 2019, dated 2026)

Assays:
[1] = target: T1, human ENPP1 (Homo sapiens, UniProt P22413); test: ENPP1 assay with ATP substrate (Transcreener AMP2/GMP2 TR-FRET); type: biochemical; details: 1 hour at room temperature
T1 construct: made in house
T1 sequence (P22413 1-925): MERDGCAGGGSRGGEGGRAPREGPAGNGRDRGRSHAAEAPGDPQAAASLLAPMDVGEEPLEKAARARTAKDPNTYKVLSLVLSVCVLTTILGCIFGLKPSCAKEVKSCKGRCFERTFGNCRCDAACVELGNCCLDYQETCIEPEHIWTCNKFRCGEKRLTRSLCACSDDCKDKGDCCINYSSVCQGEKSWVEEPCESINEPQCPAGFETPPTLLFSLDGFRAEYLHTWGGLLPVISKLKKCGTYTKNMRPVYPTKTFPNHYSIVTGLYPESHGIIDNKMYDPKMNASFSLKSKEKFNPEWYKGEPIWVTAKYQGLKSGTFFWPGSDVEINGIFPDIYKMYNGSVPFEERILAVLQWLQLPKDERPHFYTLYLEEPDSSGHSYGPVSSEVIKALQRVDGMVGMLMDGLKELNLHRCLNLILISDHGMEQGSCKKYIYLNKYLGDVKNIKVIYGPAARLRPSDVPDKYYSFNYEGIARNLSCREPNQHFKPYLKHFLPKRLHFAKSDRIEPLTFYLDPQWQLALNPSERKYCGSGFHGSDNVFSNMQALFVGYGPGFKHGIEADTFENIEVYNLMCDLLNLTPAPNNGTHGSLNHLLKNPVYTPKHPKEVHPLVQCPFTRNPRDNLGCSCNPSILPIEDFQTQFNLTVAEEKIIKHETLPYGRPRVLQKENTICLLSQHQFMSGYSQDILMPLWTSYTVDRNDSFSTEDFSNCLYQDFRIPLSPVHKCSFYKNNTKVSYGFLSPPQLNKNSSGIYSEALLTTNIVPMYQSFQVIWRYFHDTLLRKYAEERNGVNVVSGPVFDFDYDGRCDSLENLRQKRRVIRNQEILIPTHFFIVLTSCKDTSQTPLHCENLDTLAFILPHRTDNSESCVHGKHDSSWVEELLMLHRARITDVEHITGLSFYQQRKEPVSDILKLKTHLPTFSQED
Procedure, shortened: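 Reaction ran 1 h at room temperature in pH 7.5 Tris with MgCl2, TCEP, Tween 20 and 1% DMSO. ATP was added as a 300 nM stock and enzyme as an 8.5 μM stock. After EDTA stop, AMP was read by TR-FRET tracer displacement. Percent inhibition used enzyme/no-enzyme controls; IC50 was fitted with a variable slope.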

[2] = target: T2, ENPP3 (Homo sapiens, UniProt O14638); test: ENPP3 Km ATP assay; type: biochemical; details: ATP at Km
T2 sequence (O14638 1-875): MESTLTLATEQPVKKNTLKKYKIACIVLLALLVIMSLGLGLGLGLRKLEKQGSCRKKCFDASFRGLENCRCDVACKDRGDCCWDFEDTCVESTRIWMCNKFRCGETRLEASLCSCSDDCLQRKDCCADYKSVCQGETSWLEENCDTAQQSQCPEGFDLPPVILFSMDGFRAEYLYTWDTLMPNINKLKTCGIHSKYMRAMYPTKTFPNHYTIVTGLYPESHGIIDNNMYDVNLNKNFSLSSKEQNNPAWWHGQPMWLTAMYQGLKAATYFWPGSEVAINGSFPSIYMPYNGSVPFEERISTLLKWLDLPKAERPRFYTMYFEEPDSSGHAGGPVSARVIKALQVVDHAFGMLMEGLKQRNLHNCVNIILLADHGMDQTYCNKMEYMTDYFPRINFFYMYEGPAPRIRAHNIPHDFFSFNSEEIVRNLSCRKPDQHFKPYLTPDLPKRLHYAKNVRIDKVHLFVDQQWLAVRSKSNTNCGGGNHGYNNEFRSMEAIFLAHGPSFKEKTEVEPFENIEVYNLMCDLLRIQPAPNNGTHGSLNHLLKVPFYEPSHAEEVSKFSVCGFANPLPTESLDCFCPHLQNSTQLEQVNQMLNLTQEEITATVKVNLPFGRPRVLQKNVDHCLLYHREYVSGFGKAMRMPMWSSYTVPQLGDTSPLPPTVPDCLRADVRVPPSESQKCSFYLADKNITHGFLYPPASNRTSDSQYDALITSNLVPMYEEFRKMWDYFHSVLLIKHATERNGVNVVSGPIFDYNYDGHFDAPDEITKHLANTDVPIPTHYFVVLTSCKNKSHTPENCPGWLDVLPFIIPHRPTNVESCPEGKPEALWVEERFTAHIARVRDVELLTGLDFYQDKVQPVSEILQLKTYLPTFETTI

Row | Structure (SMILES) | IC50 [1] [µM] | IC50 [2] [µM]
1 | CN(Cc1ccccc1)c1nc(NCc2ccc(S(N)(=O)=O)cc2)c2cnn(C)c2n1 [Example 2.32, 4-(((6-(Benzyl(methyl)amino)-1-methyl-1H-pyrazolo[3,4-d]pyrimidin-4-yl)amino)methyl)-benzenesulfonamide] | > 20 | 0.1 to 1
2 | NS(=O)(=O)N1CCC(CNc2nc(-c3ccccn3)nc3scc(-c4ccccc4)c23)CC1 [Example 1.67, 4-((5-Phenyl-2-(2-pyridyl)thieno[2,3-d]pyrimidin-4-yl)aminomethyl)-1-piperidinesulfonamide] | 0.1 to 1 | 1 to 20
3 | Cn1ncc2c(NCc3ccc(S(N)(=O)=O)cc3)nc(OCC(F)(F)F)nc21 [Example 2.99, 4-((6-(2,2,2-Trifluoroethoxy)-1-methyl-1H-pyrazolo[3,4-d]pyrimidin-4-yl)aminomethyl)-benzenesulfonamide] | 0.1 to 1 | 0.1 to 1
4 | Cn1nc(Br)c2c(NCc3ccc(S(N)(=O)=O)cc3)nc(Cl)nc21 [Example 2.87, 4-((3-Bromo-6-chloro-1-methyl-1H-pyrazolo[3,4-d]pyrimidin-4-yl)aminomethyl)-benzenesulfonamide] | < 0.1 | < 0.1
5 | Cc1csc2c(N3CCC(NCCCc4cccc(F)c4)CC3)ncnc12 [Example 3.41, N-(3-(3-Fluorophenyl)propyl)-1-(7-methylthieno[3,2-d]pyrimidin-4-yl)piperidin-4-amine] | 0.1 to 1 | > 20
6 | Cc1nc(NCc2ccc(S(N)(=O)=O)cc2)c2c(C3=CCCC3)nn(C)c2n1 [Example 2.127, 4-((3-(1-Cyclopenten-1-yl)-1,6-dimethyl-1H-pyrazolo[3,4-d]pyrimidin-4-yl)aminomethyl)benzenesulfonamide] | 1 to 20 | 0.1 to 1
7 | Cn1ncc2c(NCc3ccc(S(N)(=O)=O)cc3)nc(N3CCOCC3)nc21 [Example 2.29, 4-(((1-Methyl-6-morpholino-1H-pyrazolo[3,4-d]pyrimidin-4-yl)amino)methyl)-benzenesulfonamide] | > 20 | 0.1 to 1
8 | Cc1csc2c(N3CCC(NCCCc4ccncc4)CC3)nc(-c3ccccc3)nc12 [Example 3.61, 1-(7-Methyl-2-phenylthieno[3,2-d]pyrimidin-4-yl)-N-(3-(pyridin-4-yl)propyl)piperidin-4-amine] | > 20 | > 20
9 | Cc1csc2c(N3CCC(NCCCc4cccnc4)CC3)ncnc12 [Example 3.26, 1-(7-Methylthieno[3,2-d]pyrimidin-4-yl)-N-(3-(pyridin-3-yl)propyl)piperidin-4-amine] | 0.1 to 1 | > 20
10 | CC(C)CCOc1nc(NCc2ccc(S(N)(=O)=O)cc2)c2cnn(C)c2n1 [Example 2.101, 4-((1-Methyl-6-(3-methylbutoxy)-1H-pyrazolo[3,4-d]pyrimidin-4-yl)aminomethyl)-benzenesulfonamide] | < 0.1 | 0.1 to 1
11 | CN1CCN(c2nc(N3CCC(NCCCc4ccncc4)CC3)c3cnn(C)c3n2)CC1 [Example 2.6, 1-(1-Methyl-6-(4-methylpiperazin-1-yl)-1H-pyrazolo[3,4-d]pyrimidin-4-yl)-N-(3-(pyridin-4-yl)propyl)piperidin-4-amine] | > 20 | > 20
12 | Cc1csc2c(N3CCC(Nc4ccncc4)CC3)ncnc12 [Example 3.24, N-(1-(7-Methylthieno[3,2-d]pyrimidin-4-yl)piperidin-4-yl)pyridin-4-amine] | 1 to 20 | > 20
13 | NS(=O)(=O)c1ccc(CNc2nc(Cl)nc3c2cnn3CC(F)(F)F)cc1 [Example 2.86, 4-((6-Chloro-1-(2,2,2-trifluoroethyl)-1H-pyrazolo[3,4-d]pyrimidin-4-yl)aminomethyl)-benzenesulfonamide] | 1 to 20 | 1 to 20
14 | Cn1ncc2c(NCc3ccc(S(N)(=O)=O)cc3)cc(Cl)nc21 [Example 2.73, 4-(((6-Chloro-1-methyl-1H-pyrazolo[3,4-b]pyridin-4-yl)amino)methyl)benzenesulfonamide] | < 0.1 | < 0.1
15 | CN(C)CCN(C)c1nc(NCc2ccc(S(N)(=O)=O)cc2)c2c(-c3ccccc3)csc2n1 [Example 1.58, 4-((2-((N-2-(Dimethylamino)ethyl)-N-methylamino)-5-phenylthieno[2,3-d]pyrimidin-4-yl)aminomethyl)benzenesulfonamide] | < 0.1 | < 0.1
16 | Cc1csc2c(N3CCC(NCCCc4ccncc4Cl)CC3)ncnc12 [Example 3.13, N-(3-(3-Chloropyridin-4-yl)propyl)-1-(7-methylthieno[3,2-d]pyrimidin-4-yl)piperidin-4-amine] | 0.1 to 1 | > 20
17 | CCSc1nc(NCc2ccc(S(N)(=O)=O)cc2)c2cnn(C)c2n1 [Example 2.108, 4-((6-(Ethylsulfanyl)-1-methyl-1H-pyrazolo[3,4-d]pyrimidin-4-yl)aminomethyl)-benzenesulfonamide] | < 0.1 | < 0.1
18 | Cc1csc2c(N3CCC(NCCCc4ccncc4F)CC3)ncnc12 [Example 3.40, N-(3-(3-Fluoropyridin-4-yl)propyl)-1-(7-methylthieno[3,2-d]pyrimidin-4-yl)piperidin-4-amine] | 0.1 to 1 | > 20
19 | Cc1csc2c(N3CCC(NC(=O)CCc4ccnc(Br)c4)CC3)ncnc12 [Example 3.9] | 1 to 20 | > 20
20 | CN(C)CCNc1nc(NCc2ccc(S(N)(=O)=O)cc2)c2c(-c3ccccc3)csc2n1 [Example 1.60, 4-((2-(2-Dimethylamino)ethylamino-5-phenylthieno[2,3-d]pyrimidin-4-yl)aminomethyl)-benzenesulfonamide] | < 0.1 | < 0.1
21 | c1ccc(-c2csc3nc(-c4ccccn4)nc(NCc4cccnc4)c23)cc1 [Example 1.1, 5-Phenyl-2-(pyridin-2-yl)-N-(pyridin-3-ylmethyl)thieno[2,3-d]pyrimidin-4-amine] | 1 to 20 | > 20
22 | Cc1csc2c(N3CCC(NC(=O)CCc4cccc(Cl)c4)CC3)ncnc12 [Example 3.18, 3-(3-Chlorophenyl)-N-(1-(7-methylthieno[3,2-d]pyrimidin-4-Y)piperidin-4-yl)propanamide] | > 20 | > 20
23 | Cc1csc2c(N3CCN(CCCCc4ccncc4)CC3)ncnc12 [Example 3.7, 7-Methyl-4-(4-(4-(pyridin-4-yl)butyl)piperazin-1-yl)thieno[3,2-d]pyrimidine] | 1 to 20 | > 20
24 | COc1cc(CNc2ncnc3c2cnn3C)ccc1S(N)(=O)=O [Example 2.42, 2-Methoxy-4-(((1-methyl-1H-pyrazolo[34-d]pyrimidin-4-yl)amino)methyl)-benzenesulfonamide] | > 20 | > 20
25 | COc1nc(NCc2ccc(S(N)(=O)=O)cc2)c2cnn(C)c2n1 [Example 2.94, 4-((6-Methoxy-1-methyl-1H-pyrazolo[3,4-d]pyrimidin-4-yl)aminomethyl)-benzenesulfonamide] | < 0.1 | 0.1 to 1
26 | Cc1csc2c(N3CCC(OCCCc4ccc(F)cc4)CC3)ncnc12 [Example 3.45, 4-(4-(3-(4-Fluorophenyl)propoxy)piperidin-1-yl)-7-methylthieno[3,2-d]pyrimidine] | > 20 | > 20
